pIC50: −log10 of the molar value.
What was measured:
[1] = target: T1, Human recombinant MAO-A (hMAO-A) (Homo sapiens, UniProt P21397); test: MAO-A inhibition assay (Amplex Red fluorescence, p-tyramine substrate); type: biochemical
T1 construct: purchased Sigma-Aldrich; host or cells: insect cells
T1 sequence (P21397 1-527): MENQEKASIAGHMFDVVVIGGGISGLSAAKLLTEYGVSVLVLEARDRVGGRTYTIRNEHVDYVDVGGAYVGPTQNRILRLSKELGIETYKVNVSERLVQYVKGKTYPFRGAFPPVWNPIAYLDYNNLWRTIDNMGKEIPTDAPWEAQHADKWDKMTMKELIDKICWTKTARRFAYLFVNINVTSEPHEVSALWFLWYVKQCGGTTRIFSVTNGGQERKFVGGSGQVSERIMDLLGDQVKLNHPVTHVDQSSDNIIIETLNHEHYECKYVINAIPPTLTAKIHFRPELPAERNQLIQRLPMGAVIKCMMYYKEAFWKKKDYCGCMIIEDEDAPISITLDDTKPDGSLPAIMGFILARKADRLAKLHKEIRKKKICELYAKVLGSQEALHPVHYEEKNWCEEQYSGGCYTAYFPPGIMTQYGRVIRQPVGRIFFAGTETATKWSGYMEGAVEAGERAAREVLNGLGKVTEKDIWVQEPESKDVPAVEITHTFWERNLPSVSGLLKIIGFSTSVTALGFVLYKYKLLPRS
Method: The biological evaluation of the tested compounds over both MAO-A and MAO-B was performed following the previously reported method. The MAO activity was measured in relative fluorescence units (RFU) evoked by peroxidase-catalyzed oxidation of Amplex Red® to resorufin, in which H2O2 generated by MAO reaction was used as the electron donor. Human recombinant MAO-A (hMAO-A) and MAO-B (hMAO-B) enzymes expressed in insect cells were obtained from Sigma-Aldrich. The 2 μL of test compound in DMSO ([…]) was treated with 98 μL of hMAO enzyme solution in 50 mM sodium phosphate buffer (pH 7.4, final protein amounts: ~1.25 μg protein/well for MAO-A and ~2.5 μg protein/well for MAO-B) on 96-well black plate and incubated for 15 min at 37 °C. Then, 100 μL of reaction working solution which is a mixed solution of 400 μM Amplex Red® (Cayman, final concentration: 200 μM), 2 U/mL horseradish peroxidase (Sigma-Aldrich, final concentration: 1 U/mL) and 2 mM substrate (p-tyramine for MAO-A, benzylamine for MAO-B, Sigma-Aldrich, final concentration: 1 mM) in 50 mM sodium phosphate buffer (pH 7.4) were added and incubated for 20 min at 37 °C in the dark. The fluorescent intensity was quantified using a microplate reader (SpectraMax®i3, Molecular Device) with an excitation at 545 nm and an emission at 590 nm. The 50% inhibitory concentrations (IC50) of compounds were determined as the mean ± S.E.M. in triplicate from the dose-response inhibition curves using SigmaPlot® 13.0 (Systat Software Inc., San Jose, CA, USA).

PC12 cells [2] = test: Cytotoxicity over PC12 cells (MTT assay); type: cell-based; conditions: 24 h
Method: PC12 cells were routinely maintained in RPMI-1640 media containing 100 IU/mL penicillin, and 100 μg/mL streptomycin supplemented by 10% heat-inactivated HS, 5% FBS in a humidified incubator containing 5% CO2 and 95% air at 37 °C [25]. The cell culture media was changed every two days. To perform experiments, cells were plated on poly-D-lysine/laminin-coated 24-well plates at a density of 3 × 10^5 cells/well and incubated for at least 24 h to allow cell adhesion.
To examine the effects of the test compounds on cell survival, cells were incubated in low serum media (1% HS, 1% FBS, 100 IU/mL penicillin, and 100 μg/mL streptomycin) with test compounds at the concentrations of 10 and 30 μM or an equivalent volume of vehicle control (DMSO at the final concentration of 0.3%) for 24 h. The media containing test compounds was sonicated at room temperature for 30 min to assure adequate dissolution in the media. To assess the protective effects of the test compounds on 6-OHDA- or rotenone-induced cell death in PC12 cells, cells were pre-treated with the compounds or rasagiline for 4 h. The pre-treated cells were then exposed to 6-OHDA (50 μM) or rotenone (1 μM) for 24 h.
After the desired treatment, cell viability was determined by MTT assay as described previously, with slight modification. Briefly, MTT was added to the cells at the final concentration of 0.5 mg/mL, followed by incubation for 3 h at 37 °C. The supernatants were carefully removed, and then 300 μL of DMSO was added to each well to dissolve formazan precipitate. The absorbance of the dissolved solution was measured at 550 nm using a microplate reader (SpectraMax M2e, Molecular Devices, Sunnyvale, CA, USA). The cell viability was presented as the percentage of the absorbance measured in the vehicle-treated control cells. […] Inhibition (%) = 100 × (Abssample − Abs6-OHDA or rotenone)/(Abscontrol − Abs6-OHDA or rotenone)

PC12 cells [3] = test: 6-OHDA-induced ROS generation in PC12 cells (H2-DCFDA); type: cell-based, rat; conditions: 10 μM compound, 6-OHDA 50 μM 20 h
Method: The involvement of oxidative stress in the observed reduction in cell viability was investigated using the fluorescent dye H2-DCFDA as described previously. Briefly, cells were loaded with 10 μM H2-DCFDA for 30 min at 37 °C. Subsequently, cells were exposed for 4 h to 10 μM of test compounds followed by the addition of 50 μM 6-OHDA or 1 μM rotenone for 20 h, and fluorescence was measured spectrophotometrically at 488/520 nm in a microplate reader (SpectraMax M2e). N-acetylcysteine (NAC, 5 mM) was included as a […] control for oxidative stress.

Row | SMILES | pIC50 [1] | inhibition at 10 µM [1] [%] | inhibition at 30 µM [1] [%] | inhibition at 100 µM [1] [%] | Cytotoxic effect on PC12 cell viability (PC12 cells [2]; 10 μM) | Cytotoxic effect on PC12 cell viability (PC12 cells [2]; 30 μM) | Effect on 6-OHDA-induced ROS generation (PC12 cells [3])
1 | O=C(Nc1ccc(Br)cc1)c1ccc2[nH]ccc2c1 [Compound 8b, N-(4-bromophenyl)-1H-indole-5-carboxamide] | < 4.00 | 15.1 | 27.9 | 30.1 | did not show any cytotoxic effects | significant reduction in cell viability | significantly decreased
2 | COC(=O)c1ccc2c(ccn2C(=O)c2ccc(Cl)c(Cl)c2)c1 [Compound 7b, Methyl 1-(3,4-dichlorobenzoyl)-1H-indole-5-carboxylate] | < 4.00 | < 10 | < 10 | < 10 | did not show any cytotoxic effects |  | significantly decreased
3 | O=C(Nc1ccc(I)cc1)c1ccc2[nH]ccc2c1 [Compound 8a, N-(4-iodophenyl)-1H-indole-5-carboxamide] | < 4.00 | 17.2 | 21.7 | 23.5 | did not show any cytotoxic effects |  | not effective
4 | O=C(Nc1ccc2c(c1)OCO2)c1ccc2[nH]ccc2c1 [Compound 8e, N-(benzo[d][1,3]dioxol-5-yl)-1H-indole-5-carboxamide] | < 4.00 | < 10 | < 10 | < 10 | did not show any cytotoxic effects |  | significantly decreased

Source: PMC8533206 (Antioxidants, 2021)
